Laboratory results published in ChEMBL document CHEMBL3585314, “Initial development of a cytotoxic amino-seco-CBI warhead for delivery by prodrug systems” (Bioorg Med Chem, 2015).
Values belong to the molecule of their own block, whether it stands above or below them.

Assays:
LNCaP = test: Cytotoxicity against human LNCAP cells assessed as inhibition of cell proliferation by MTS assay; assay type: functional, cell-based
Calf thymus DNA [1] = test: Binding affinity to calf thymus DNA assessed as change in melting temperature treated with (5-amino-1-(chloromethyl)-1H-benzo[e]indol-3(2H)-yl)(5-(2-(dimethylamino)ethoxy)-1H-indol-2-yl)methanone at 0.2 equiv. per base pair at pH 7 after 1 hr by spectrometric analysis; assay type: nucleic-acid assay; conditions: Bos taurus
L1210 [2] = test: Cytotoxicity against mouse L1210 cells after 24 hrs by MTT assay; assay type: functional, cell-based; conditions: L1210, 24 h
L1210 [3] = test: Cytotoxicity against mouse L1210 cells; assay type: functional, cell-based
L1210 [4] = test: Cytotoxicity against mouse L1210 cells after 3 days by coulter counter analysis; assay type: functional, cell-based; conditions: L1210, 72 h
Calf thymus DNA [5] = test: Binding affinity to calf thymus DNA assessed as change in melting temperature at 6.9 DNA to compound ratio at pH 7.2 by spectrophotometric analysis; assay type: nucleic-acid assay; conditions: Bos taurus

SMILES: CN(C)CCOc1ccc2[nH]c(C(=O)N3CC(CCl)c4c3cc(N)c3ccccc43)cc2c1 (configuration not stated)
- IC50 (LNCaP): 18 nM

- ΔTm (Calf thymus DNA [1]): 13 °C
SMILES: CN(C)CCOc1ccc2[nH]c(C(=O)N3CC4CC45C3=CC(=N)c3ccccc35)cc2c1 (configuration not stated)

SMILES: COc1cc2[nH]c(C(=O)N3C[C@H]4C[C@@]45C3=CC(=O)c3[nH]c(C(=O)N4CCc6c4c(O)c(OC)c4[nH]c(C(=O)SC)cc64)cc35)cc2cc1O
- IC50 (L1210 [2]): 0.005 nM

SMILES: CN(C)CCOc1ccc2[nH]c(C(=O)N3CC(CCl)c4c3cc(NC(=O)OC(C)(C)C)c3ccccc43)cc2c1 (configuration not stated)
- IC50 (LNCaP): 218 nM

SMILES: COC(=O)c1cc2c([nH]1)C(=O)C=C1N(C(=O)c3cc4cc(OC)c(OC)c(OC)c4[nH]3)CC3CC123 (configuration not stated) [DUOCARMYCIN SA]
- IC50 (L1210 [3]): 0.01 nM

SMILES: COc1c(O)c2c(c3cc(C(=O)N4CCc5c4c(O)c(OC)c4[nH]c(C(=O)N6C[C@H]7C[C@@]78C6=CC(=O)c6[nH]cc(C)c68)cc54)[nH]c13)CCN2C(N)=O [(+)-CC-1065]
- IC50 (L1210 [4]): 0.024 nM
- ΔTm (Calf thymus DNA [5]): 31 °C
